Measurements from US12692302B2, “Uses of IL-13 antagonists for treating atopic dermatitis” (Genentech, Inc., priority 2016, dated 2026).

System: patients with persistent moderate to severe atopic dermatitis inadequately controlled by TCS
Assay: Clinical Study I (phase II, lebrikizumab + TCS vs placebo + TCS): efficacy outcomes
Assay type: in vivo, human
Conditions: for Change from baseline Pruritus VAS, mean % change / Change from baseline Pruritus VAS, placebo-corrected differences / Change from baseline in EASI, mean % change / Change from baseline in EASI, placebo-corrected differences / Patients maintaining EASI-50 response at Weeks 12 and 20, % / Patients maintaining EASI-50 response at Weeks 12 and 20, placebo-corrected differences / Patients maintaining EASI-75 response at Weeks 12 and 20, % / Patients maintaining EASI-75 response at Weeks 12 and 20, placebo-corrected differences / Patients maintaining IGA 0/1 response at Weeks 12 and 20, % / Patients maintaining IGA 0/1 response at Weeks 12 and 20, placebo-corrected differences / Patients maintaining SCORAD-50 response at Weeks 12 and 20, % / Patients maintaining SCORAD-50 response at Weeks 12 and 20, placebo-corrected differences: Week 20
Method: Clinical Study I was a phase II, randomized, double-blind, placebo-controlled study to evaluate the safety and efficacy of lebrikizumab in patients (age 18-75) with persistent moderate to severe atopic dermatitis that is inadequately controlled by topical corticosteroids (TCS). In this Study, lebrikizumab was tested in combination with TCS.
The inclusion criteria included the following: age 18 to 75 years; AD diagnosed by the Hanifin/Rajka criteria and that had been present for at least 1 year at screening; moderate to severe AD as graded by the Rajka/Langeland criteria at screening; history of inadequate response to a 1 month (within the 3 months prior to the screening visit) treatment regimen of at least daily TCS and regular emollient for treatment of AD; EASI score 14 at screening and end of the run-in period (Visit 3), IGA score 3 (5-point scale) at screening and end of the run-in period (Visit 3); AD involvement of 10% body surface area (BSA) at screening; and Pruritus VAS score (measured as part of the SCORAD) of 3 at screening.
Run-in Period. Following the screening visit, eligible patients entered a 2-week run-in period (Days −14 to −1) during which a protocol-specified topical therapy regimen was initiated. On the first day of the run-in period (Day −14) patients received TCS for use throughout the run-in period. Patients were required to apply the following topical therapy regimen daily: emollient to all xerotic skin surfaces, at least once daily; TCS cream consisting of medium potency TCS (triamcinolone acetonide 0.1%), two times per day, only to all active skin lesions.
Treatment Period. […] The plan was to randomize approximately 200 patients (1:1:1:1) to one of the following four treatment groups (see FIG. 1): (1) Group 1: lebrikizumab 250 mg administered subcutaneously (SC) single dose (Day 1) followed by 2 placebo doses (at Week 4 and at Week 8) for a total of 3 doses+TCS cream; (2) Group 2: lebrikizumab 125 mg SC single dose (Day 1) followed by 2 placebo doses (Week 4 and Week 8) for a total of 3 doses+TCS cream; (3) Group 3: lebrikizumab 125 mg SC every 4 weeks (Q4W) for a total of 3 doses+TCS cream; and (4) Group 4: placebo SC Q4W for a total of 3 doses+TCS cream. Three active doses were included to characterize both exposure-response relationships and dosing frequency requirements.
Patients randomized to these four study treatment groups received study drug (lebrikizumab or placebo SC) in combination with TCS. Throughout the 12-week treatment period these patients continued to apply emollient at least once daily and triamcinolone acetonide 0.1% cream as described in the run-in period (two times per day to all active skin lesions on the body). […] Patients recorded their use of topical creams and responded to PRO-related questions using a hand held eDiary throughout the treatment period. At each study visit the patient was required to bring their TCS containers to the study site to be weighed.
Efficacy Outcome Measures. The primary efficacy outcome measure was the percentage of patients achieving EASI-50 (a 50% reduction in EASI score from baseline) at Week 12. […]

[1] = 125 mg Q4W + TCS BID (n = 51), Week 12
[2] = 125 mg Q4W + TCS BID (n = 51), Week 12, listed as Lebri
[3] = 125 mg once every four weeks + TCS, Week 12, post hoc analysis
[4] = 125 mg single dose + TCS BID (n = 52), Week 12

Q: Which results are given for “lebrikizumab: monoclonal humanized anti-IL-13 IgG4 antibody; heavy chain SEQ ID NO: 11, light chain SEQ ID NO: 12; formulated at 125 mg/mL in prefilled syringe”?
A: % Patients achieving EASI-50 [1]: 82.4%; % Patients achieving EASI-50, placebo-corrected changes [1]: 20.1%; % Patients achieving EASI-75 [1]: 54.9%; % Patients achieving EASI-75, placebo-corrected changes [1]: 20.9%; % Patients achieving IGA 0/1 [1]: (33.3) %; % Patients achieving IGA 0/1, placebo-corrected change [1]: 14.5%; % Patients achieving SCORAD-50 [1]: 51.0%; % Patients achieving SCORAD-50, placebo-corrected change [1]: 24.6%; % Patients achieving SCORAD-75 [1]: (21.6) %; % change from baseline in AD Specific health-related QoL - ADIQ, mean [1]: −54.3%; % change from baseline in ADIQ, placebo-corrected change [1]: −25.3%; % change from baseline in Pruritus VAS (from SCORAD), mean [1]: −40.71%; % change from baseline in Pruritus VAS (from SCORAD), placebo-corrected change [1]: −13.7%; % change from baseline in Sleep Loss VAS (from SCORAD), mean [1]: −53.6%; % change from baseline in Sleep Loss VAS (from SCORAD), placebo-corrected change [1]: −31.0%; DLQI, % change from baseline, adjusted mean [1]: −43.12%; DLQI, % change from baseline, Δ vs placebo [1]: −9.55%; SCORAD score % change from baseline, adjusted mean [1]: −53.5%; SCORAD score % change from baseline, Δ vs placebo [1]: −18.0%; Total % BSA affected, % change from baseline, adjusted mean [1]: −57.7%; Total % BSA affected, % change from baseline, Δ vs placebo [1]: −10.3%; % Patients achieving EASI-50 [2]: (82.4) %; % Patients achieving EASI-75 [2]: (54.9) %; % Patients achieving SCORAD-50 [2]: (51.0) %; reduction in BSA affected (125 mg Q4W + TCS, Week 12): 57.7%; Change from baseline Pruritus VAS, mean % change (125 mg Q4W + TCS): −35.23%; Change from baseline Pruritus VAS, placebo-corrected differences (125 mg Q4W + TCS): −13.76%; Change from baseline in EASI, mean % change (125 mg Q4W + TCS): −71.1%; Change from baseline in EASI, placebo-corrected differences (125 mg Q4W + TCS): −17.08%; Patients maintaining EASI-50 response at Weeks 12 and 20, % (125 mg Q4W + TCS): (90.5) %; Patients maintaining EASI-50 response at Weeks 12 and 20, placebo-corrected differences (125 mg Q4W + TCS): 17.75%; Patients maintaining EASI-75 response at Weeks 12 and 20, % (125 mg Q4W + TCS): (75.0) %; Patients maintaining EASI-75 response at Weeks 12 and 20, placebo-corrected differences (125 mg Q4W + TCS): 8.33%; Patients maintaining IGA 0/1 response at Weeks 12 and 20, % (125 mg Q4W + TCS): (70.6) %; Patients maintaining IGA 0/1 response at Weeks 12 and 20, placebo-corrected differences (125 mg Q4W + TCS): 10.59%; Patients maintaining SCORAD-50 response at Weeks 12 and 20, % (125 mg Q4W + TCS): (50.0) %; Patients maintaining SCORAD-50 response at Weeks 12 and 20, placebo-corrected differences (125 mg Q4W + TCS): −28.60%; Change from baseline Pruritus VAS, mean % change (125 mg SD + TCS): −27.59%; Change from baseline Pruritus VAS, placebo-corrected differences (125 mg SD + TCS): −6.13%; Change from baseline in EASI, mean % change (125 mg SD + TCS): −62.1%; Change from baseline in EASI, placebo-corrected differences (125 mg SD + TCS): −8.08%; Patients maintaining EASI-50 response at Weeks 12 and 20, % (125 mg SD + TCS): (80.6) %; Patients maintaining EASI-50 response at Weeks 12 and 20, placebo-corrected differences (125 mg SD + TCS): 7.83%; Patients maintaining EASI-75 response at Weeks 12 and 20, % (125 mg SD + TCS): (45.0) %; Patients maintaining EASI-75 response at Weeks 12 and 20, placebo-corrected differences (125 mg SD + TCS): −21.70%; Patients maintaining IGA 0/1 response at Weeks 12 and 20, % (125 mg SD + TCS): (54.5) %; Patients maintaining IGA 0/1 response at Weeks 12 and 20, placebo-corrected differences (125 mg SD + TCS): −5.45%; Patients maintaining SCORAD-50 response at Weeks 12 and 20, % (125 mg SD + TCS): (61.1) %; Patients maintaining SCORAD-50 response at Weeks 12 and 20, placebo-corrected differences (125 mg SD + TCS): −17.50%; ADIQ reduction from screening [3]: 64.7%; Pruritus VAS reduction from screening [3]: 55.2%; Sleep Loss VAS reduction from screening [3]: 61.5%; placebo corrected change in EASI (difference between lebrikizumab treatment and placebo) (125 mg once every four weeks for 12 weeks + TCS, P=0.025): 17.4%; % change (decrease) from baseline in EASI (125 mg once every four weeks for 12 weeks + TCS, modified intention-to-treat population): 70.5%; % Patients achieving EASI-50 [4]: (69.2) %; % Patients achieving EASI-50, placebo-corrected changes [4]: 7.0%; % Patients achieving EASI-75 [4]: (38.5) %; % Patients achieving EASI-75, placebo-corrected changes [4]: 4.5%; % Patients achieving IGA 0/1 [4]: (21.2) %; % Patients achieving IGA 0/1, placebo-corrected change [4]: 2.3%; % Patients achieving SCORAD-50 [4]: (34.6) %; % Patients achieving SCORAD-50, placebo-corrected change [4]: 8.2%; % Patients achieving SCORAD-75 [4]: (13.5) %; % change from baseline in AD Specific health-related QoL - ADIQ, mean [4]: −33.9%
